Results on 16 molecules are retold here after patent US12528826B2, “[1,4]oxazepino[2,3-c]quinolinone derivatives as BCL6 inhibitors” (Cancer Research Technology Limited, priority 2019, dated 2026).

In this assay the target is T1, Trx-6×His-BCL6 (human BCL6 BTB domain covering amino-acid sequence 5-129) (Homo sapiens, UniProt P41182).
T1 construct: made in house
Description: HTRF assay (BCL6 / BCOR peptide). The assay is classed as binding. The note with it: 1 nM Trx-6×His-BCL6, 300 nM BCOR-AF633 peptide, 2 hours incubation at room temperature; read-out: HTRF avg pIC50 (converted). How it is done: After 2 hours incubation at room temperature the plate was read on a Pherastar FSX (BMG Labtech) plate reader equipped with 337 nm laser excitation filter, a first emission filter at 620 nm and a second emission filter at 665 nm. The % inhibition at each concentration was calculated by normalising FRET ratio to the appropriate high (DMSO with all reagents) and low (DMSO without BCL6) controls.
Background: Time-resolved FRET reads energy transfer from a long-lived donor to a nearby acceptor.
Consider `CN(C)C[C@@H]1CCCN(c2ncc(Cl)c(Nc3ccc4c(c3)c3c(c(=O)n4C)OCC(F)(F)[C@H](C4CC4)N3)n2)C1` [Example 9b, (S)-10-((5-chloro-2-((S)-3-((dimethylamino)methyl)piperidin-1-yl)pyrimidin-4-yl)amino)-2-cyclopropyl-3,3-difluoro-7-methyl-1,2,3,4-tetrahydro-[1,4]oxazepino[2,3-c]quinolin-6(7H)-one], for which the IC50 was 3.09 nM.
With `CCNC(=O)[C@@H]1C[C@H](C)CN(c2ncc(Cl)c(Nc3ccc4c(c3)c3c(c(=O)n4C)OCC(F)(F)[C@H](C4CC4)N3)n2)C1` (racemic) [Example 9c, (3R,5S)-1-(5-chloro-4-(((S)-2-cyclopropyl-3,3-difluoro-7-methyl-6-oxo-1,2,3,4,6,7-hexahydro-[1,4]oxazepino[2,3-c]quinolin-10-yl)amino)pyrimidin-2-yl)-N-ethyl-5-methylpiperidine-3-carboxamide; (3S,5R)-1-(5-chloro-4-(((S)-2-cyclopropyl-3,3-difluoro-7-methyl-6-oxo-1,2,3,4,6,7-hexahydro-[1,4]oxazepino[2,3-c]quinolin-10-yl)amino)pyrimidin-2-yl)-N-ethyl-5-methylpiperidine-3-carboxamide], the IC50 is 3.47 nM.
As to `Cn1c(=O)c2c(c3cc(Nc4nc(N5CC(F)(F)C5)ncc4Cl)ccc31)N[C@@H](C1CC1)C(F)(F)CO2` [Example 1a, (S)-10-((5-chloro-2-(3,3-difluoroazetidin-1-yl)pyrimidin-4-yl)amino)-2-cyclopropyl-3,3-difluoro-7-methyl-1,2,3,4-tetrahydro-[1,4]oxazepino[2,3-c]quinolin-6(7H)-one], the IC50 was 10.2 nM.
In the case of `Cn1c(=O)c2c(c3cc(Nc4nc(N5CCC[C@@H](CO)C5)ncc4Cl)ccc31)N[C@@H](C1CC1)C(F)(F)CO2` [Example 9p, (S)-10-((5-chloro-2-((R)-3-(hydroxymethyl)piperidin-1-yl)pyrimidin-4-yl)amino)-2-cyclopropyl-3,3-difluoro-7-methyl-1,2,3,4-tetrahydro-[1,4]oxazepino[2,3-c]quinolin-6(7H)-one] it was 2.88 nM.
In the case of `Cn1c(=O)c2c(c3cc(Nc4nc(N5CCCC(F)C5)ncc4Cl)ccc31)N[C@@H](C1CC1)C(F)(F)CO2` (stereo partly drawn) [Example 12x40, (2S)-10-((5-chloro-2-(3-fluoropiperidin-1-yl)pyrimidin-4-yl)amino)-2-cyclopropyl-3,3-difluoro-7-methyl-1,2,3,4-tetrahydro-[1,4]oxazepino[2,3-c]quinolin-6(7H)-one] it was 10.7 nM; in that of `Cn1c(=O)c2c(c3cc(Nc4nc(N5CCNCC(O)C5)ncc4Cl)ccc31)N[C@@H](C1CC1)C(F)(F)CO2` (stereo partly drawn) [Example 12x14, (2S)-10-((5-chloro-2-(6-hydroxy-1,4-diazepan-1-yl)pyrimidin-4-yl)amino)-2-cyclopropyl-3,3-difluoro-7-methyl-1,2,3,4-tetrahydro-[1,4]oxazepino[2,3-c]quinolin-6(7H)-one], 3.47 nM.
In the case of `CCCN(C)c1ncc(Cl)c(Nc2ccc3c(c2)c2c(c(=O)n3C)OCC(F)(F)[C@H](C3CC3)N2)n1` [Example 11i, (S)-10-((5-chloro-2-(methyl(propyl)amino)pyrimidin-4-yl)amino)-2-cyclopropyl-3,3-difluoro-7-methyl-1,2,3,4-tetrahydro-[1,4]oxazepino[2,3-c]quinolin-6(7H)-one] it was 30.9 nM; in that of `Cn1c(=O)c2c(c3cc(Nc4nc(N5C[C@@H](F)C[C@H]5CO)ncc4Cl)ccc31)N[C@@H](C1CC1)C(F)(F)CO2` [Example 12x48a, (S)-10-((5-chloro-2-((2S,4S)-4-fluoro-2-(hydroxymethyl)pyrrolidin-1-yl)pyrimidin-4-yl)amino)-2-cyclopropyl-3,3-difluoro-7-methyl-1,2,3,4-tetrahydro-[1,4]oxazepino[2,3-c]quinolin-6(7H)-one], 4.27 nM.
For `C[C@@H]1C[C@H](N)CN(c2ncc(Cl)c(Nc3ccc4c(c3)c3c(c(=O)n4C)OCC(F)(F)[C@H](C4CC4)N3)n2)C1` [Example 12b, (S)-10-((2-((3S,5R)-3-amino-5-methylpiperidin-1-yl)-5-chloropyrimidin-4-yl)amino)-2-cyclopropyl-3,3-difluoro-7-methyl-1,2,3,4-tetrahydro-[1,4]oxazepino[2,3-c]quinolin-6(7H)-one], the IC50 is 2.51 nM.
In the case of `Cn1c(=O)c2c(c3cc(Nc4nc(N5CC[C@@H]5CO)ncc4Cl)ccc31)N[C@@H](C1CC1)C(F)(F)CO2` [Example 12x33b, (S)-10-((5-chloro-2-((R)-2-(hydroxymethyl)azetidin-1-yl)pyrimidin-4-yl)amino)-2-cyclopropyl-3,3-difluoro-7-methyl-1,2,3,4-tetrahydro-[1,4]oxazepino[2,3-c]quinolin-6(7H)-one] it was 7.76 nM.
Take `COC[C@H]1CCCN1c1ncc(Cl)c(Nc2ccc3c(c2)c2c(c(=O)n3C)OCC(F)(F)[C@H](C3CC3)N2)n1` [Example 12x45b, (S)-10-((5-chloro-2-((R)-2-(methoxymethyl)pyrrolidin-1-yl)pyrimidin-4-yl)amino)-2-cyclopropyl-3,3-difluoro-7-methyl-1,2,3,4-tetrahydro-[1,4]oxazepino[2,3-c]quinolin-6(7H)-one]: the IC50 is 4.79 nM.
Consider `[2H]C([2H])([2H])N1CCN(c2ncc(Cl)c(Nc3ccc4c(c3)c3c(c(=O)n4C)OCC(F)(F)[C@H](C4CC4)N3)n2)CC(O)C1` (stereo partly drawn) [Example 12x15-d3, (2S)-10-((5-chloro-2-(6-hydroxy-4-(methyl-d3)-1,4-diazepan-1-yl)pyrimidin-4-yl)amino)-2-cyclopropyl-3,3-difluoro-7-methyl-1,2,3,4-tetrahydro-[1,4]oxazepino[2,3-c]quinolin-6(7H)-one], for which the IC50 was 1.78 nM.
The figure for `CN(C)[C@H]1CCCN(c2ncc(Cl)c(Nc3ccc4c(c3)c3c(c(=O)n4C)OCC(F)(F)[C@H](C4CC4)N3)n2)C1` [Example 9h, (S)-10-((5-chloro-2-((S)-3-(dimethylamino)piperidin-1-yl)pyrimidin-4-yl)amino)-2-cyclopropyl-3,3-difluoro-7-methyl-1,2,3,4-tetrahydro-[1,4]oxazepino[2,3-c]quinolin-6(7H)-one] is 3.39 nM; for `Cn1c(=O)c2c(c3cc(Nc4nc(N5CC6CCC(C5)N6CC5CC5)ncc4Cl)ccc31)N[C@@H](C1CC1)C(F)(F)CO2` [Example 9y, (2S)-10-((5-chloro-2-(8-(cyclopropylmethyl)-3,8-diazabicyclo[3.2.1]octan-3-yl)pyrimidin-4-yl)amino)-2-cyclopropyl-3,3-difluoro-7-methyl-1,2,3,4-tetrahydro-[1,4]oxazepino[2,3-c]quinolin-6(7H)-one] it is 2.75 nM; for `Cn1c(=O)c2c(c3cc(Nc4nc(N5CCCC(C#N)C5)ncc4Cl)ccc31)N[C@@H](C1CC1)C(F)(F)CO2` (stereo partly drawn) [Example 12x23, 1-(5-chloro-4-(((S)-2-cyclopropyl-3,3-difluoro-7-methyl-6-oxo-1,2,3,4,6,7-hexahydro-[1,4]oxazepino[2,3-c]quinolin-10-yl)amino)pyrimidin-2-yl)piperidine-3-carbonitrile] it is 5.13 nM.
In the case of `CC1CN(c2ncc(F)c(Nc3ccc4c(c3)c3c(c(=O)n4C)OCC(F)(F)[C@H](C4CC4)N3)n2)CC(C)C1(F)F` (stereo partly drawn) [Example 13p01, (2S)-2-cyclopropyl-10-((2-(4,4-difluoro-3,5-dimethylpiperidin-1-yl)-5-fluoropyrimidin-4-yl)amino)-3,3-difluoro-7-methyl-1,2,3,4-tetrahydro-[1,4]oxazepino[2,3-c]quinolin-6(7H)-one], the IC50 is 85.1 nM.
